Source: patent US10766917B2, “Nucleotides for the treatment of cancer” (IDENIX PHARMACEUTICALS LLC, priority 2015, dated 2020)
Where two headings read alike, the source gives them in different places.

What was measured:
Format in all cases: cell-based
KG-1 = test: In vitro inhibition, CellTiter-Glo (CTG) assay; conditions: 72 hr exposure
Method: (§1) Cells were grown in RPMI-1640 supplemented with L-Glutamine and 10% FBS of the following cell lines:
(§2) CCRF-CEM; HL-60; KG-1; CFPAC-1; MiaPACA-2; BxPC-3; HepG2; MDA-MB-231; HCT-116; A498; and NCI-H69
(§3) 18, 96 well plates of each cell line were seeded with the optimized number of cells per well in a total volume of 50 μper well. The plates were left overnight. Plate wells were seeded with 100 pt media for media control. The following day, cells were exposed to test compounds as described below. At the same time as drug exposure, a CTG assay was conducted on the 18th plate for the 0 hr count.
(§4) The compounds were added to cells and medium already on the plate to give desired final concentrations. 50 μL media were added to cell control wells, and 50 μL of mix added to vehicle control wells. 10 μM Doxorubicin was added to appropriate wells as control. Cells exposed to test compound were incubated at 37° C. for 72 hr followed by a CTG assay.
(§5) At the end of the 72 hr exposure period, plates were removed for a CellTiter-Glo (CTG) assay from a 37° C., 5% CO2 incubator and placed on the bench at room temperature for 30 mins. 100 μL of CellTiter-Glo reagent was added and mixed for 2 mins, followed by a further 10 min incubation at room temperature. Luminescence was recorded using Synergy 4.0.

HL-60 = test: In vitro inhibition, CellTiter-Glo (CTG) assay; conditions: Homo sapiens, HL-60, 72 h, 72 hr exposure
Method: as §1, §2, §3, §4, §5

A498 = test: In vitro inhibition, CellTiter-Glo (CTG) assay; conditions: 72 hr exposure
Method: as §1, §2, §3, §4, §5

CCRF-CEM = test: In vitro inhibition, CellTiter-Glo (CTG) assay; conditions: 72 hr exposure
Method: as §1, §2, §3, §4, §5

HCT-116 = test: In vitro inhibition, CellTiter-Glo (CTG) assay; conditions: 72 hr exposure
Method: as §1, §2, §3, §4, §5

HepG2 = test: In vitro inhibition, CellTiter-Glo (CTG) assay; conditions: 72 hr exposure
Method: as §1, §2, §3, §4, §5

MiaPACA-2 = test: In vitro inhibition, CellTiter-Glo (CTG) assay; conditions: 72 hr exposure
Method: as §1, §2, §3, §4, §5

BxPC-3 = test: In vitro inhibition, CellTiter-Glo (CTG) assay; conditions: 72 hr exposure
Method: as §1, §2, §3, §4, §5

CFPAC-1 = test: In vitro inhibition, CellTiter-Glo (CTG) assay; conditions: 72 hr exposure
Method: as §1, §2, §3, §4, §5

MDA-MB-231 = test: In vitro inhibition, CellTiter-Glo (CTG) assay
Method: as §1, §2, §3, §4, §5

NCI-H69 = test: In vitro inhibition, CellTiter-Glo (CTG) assay; conditions: 72 hr exposure
Method: as §1, §2, §3, §4, §5

HuH-1 cells = test: In vitro inhibition of HuH-1, MTT assay; conditions: read-out: HuH-1: relative IC50
Method: HuH-1 cells were purchased from JCRB and tested with the following method:
Cells are suspended at a specific density in a specific culture medium (see table in 2.Cell lines).
Then, 100 μl of cell suspension are plated per well in 96-well plates.
Compounds or negative controls (DMSO) are added to the cells (100 μl of a compound solution in its specific medium with a final concentration of 0.15% DMSO).
Each compound concentration is tested in duplicate (6 concentrations per compound).
Cells are incubated at 37° C. for 72 h without treating again.
SDS is added to control wells (final concentration of 1%) and kept for 15 min at 37° C. SDS 1% represents the positive control of proliferation inhibition.
Cell supernatant is removed and 100 μl of a MTT (3-[4.5-dimethylthiazol-2-yl]-2.5-diphenyltetrazolium bromide) solution in fresh medium are added per well (MTT final concentration of 0.5 mg/ml) and incubated for 4 h at 37° C.
MTT reaction is stopped and homogenized by adding 100 μl/well of SDS 10%, 0.01M HCl and incubated for 2 h at 37° C.
Absorbance is measured at 570 nm.

[1] = Homo sapiens, MDA-MB-231, 72 hr exposure

`Nc1ccn([C@@H]2O[C@H](COP(=O)(O)NCc3ccccc3)[C@@H](O)C2(F)F)c(=O)n1` [Compound 117] was tested, and the IC50 (KG-1; Homo sapiens, KG-1, 72 h) was < 1 µM, the IC50 (HL-60) was < 1 µM and the IC50 (A498; Homo sapiens, A498, 72 h) was < 1 µM. The IC50 (CCRF-CEM; Homo sapiens, CCRF-CEM, 72 h) was < 1 µM, the IC50 (HCT-116; Homo sapiens, HCT-116, 72 h) was < 1 µM and the IC50 (HepG2; Homo sapiens, HepG2, 72 h) was < 1 µM. For the same compound, the IC50 (MiaPACA-2; Homo sapiens, MIA PaCa-2, 72 h) was < 1 µM, the IC50 (BxPC-3; Homo sapiens, BXPC-3, 72 h) was < 1 µM and the IC50 (CFPAC-1; Homo sapiens, CFPAC-1, 72 h) was < 1 µM. For the same compound, the IC50 (MDA-MB-231; [1]) was 1 to 10 µM and the IC50 (NCI-H69; Homo sapiens, NCI-H69, 72 h) was < 1 µM.

`Cn1c(COP(=O)(NCc2ccccc2)OC[C@H]2O[C@@H](n3ccc(N)nc3=O)C(F)(F)[C@@H]2O)cnc1[N+](=O)[O-]` (single isomer, unassigned) [112 (diastereomer 1)] gave an IC50 (KG-1) of 10 to 100 µM, an IC50 (HL-60) of 1 to 10 µM and an IC50 (A498; Homo sapiens, A498, 72 h) of 10 to 100 µM. For the same compound, the IC50 (CCRF-CEM) was 10 to 100 µM, the IC50 (HCT-116; Homo sapiens, HCT-116, 72 h) was 10 to 100 µM and the IC50 (HepG2) was 10 to 100 µM. The IC50 (MiaPACA-2; Homo sapiens, MIA PaCa-2, 72 h) was 10 to 100 µM, the IC50 (BxPC-3; Homo sapiens, BXPC-3, 72 h) was 10 to 100 µM and the IC50 (CFPAC-1) was 10 to 100 µM. It also gave an IC50 (MDA-MB-231; [1]) of 10 to 100 µM and an IC50 (NCI-H69; Homo sapiens, NCI-H69, 72 h) of 10 to 100 µM.

In the case of `CC(C)OC(=O)[C@@H](C)CCO[P@@]1(=O)OC[C@H]2O[C@@H](n3ccc(N)nc3=O)C(F)(F)[C@@H]2O1` (single isomer, unassigned) [Compound 121 Diastereoisomer 2], the IC50 (HuH-1 cells; Homo sapiens, HuH-1, 72 h) is reported as < 0.3 µM.

`CCOC(=O)[C@H](C)CCO[P@]1(=O)OC[C@H]2O[C@@H](n3ccc(N)nc3=O)C(F)(F)[C@@H]2O1` (single isomer, unassigned) [Compound 123 Diastereoisomer 2] was tested, and the IC50 (HuH-1 cells; Homo sapiens, HuH-1, 72 h) was < 0.3 µM.

In the case of `Nc1ccn([C@@H]2O[C@H](CO)[C@@H](O)C2(F)F)c(=O)n1` [Gemcitabine, reference compound], the IC50 (HuH-1 cells; Homo sapiens, HuH-1, 72 h) is reported as < 0.3 µM.

With `CCOC(=O)[C@H](C)CCO[P@@]1(=O)OC[C@H]2O[C@@H](n3ccc(N)nc3=O)C(F)(F)[C@@H]2O1` (single isomer, unassigned; diastereoisomer 1) [Compound 123 Diastereoisomer 1] the IC50 (HuH-1 cells; 72 h) was < 0.3 µM.

In the case of `CC(C)OC(=O)[C@H](C)CCO[P@]1(=O)OC[C@H]2O[C@@H](n3ccc(N)nc3=O)C(F)(F)[C@@H]2O1` (single isomer, unassigned) [Compound 120 Diastereoisomer 1], the IC50 (HuH-1 cells; Homo sapiens, HuH-1, 72 h) is reported as < 0.3 µM.

`CC(C)OP1(=O)OC[C@H]2O[C@@H](n3ccc(N)nc3=O)C(F)(F)[C@@H]2O1` (single isomer, unassigned) [102 (diastereomer 2)] was tested, and the IC50 (KG-1; Homo sapiens, KG-1, 72 h) was < 1 µM, the IC50 (A498; Homo sapiens, A498, 72 h) was 10 to 100 µM and the IC50 (HCT-116) was 1 to 10 µM. The IC50 (HepG2) was < 1 µM, the IC50 (MiaPACA-2) was 1 to 10 µM and the IC50 (BxPC-3) was 1 to 10 µM. For the same compound, the IC50 (CFPAC-1) was 1 to 10 µM, the IC50 (MDA-MB-231; [1]) was 10 to 100 µM and the IC50 (NCI-H69; Homo sapiens, NCI-H69, 72 h) was 10 to 100 µM.

With `CC(C)OC(=O)[C@H](C)CCO[P@@]1(=O)OC[C@H]2O[C@@H](n3ccc(N)nc3=O)C(F)(F)[C@@H]2O1` (single isomer, unassigned; diastereoisomer 2) [Compound 120 Diastereoisomer 2] the IC50 (HuH-1 cells; 72 h) was < 0.3 µM.

In the case of `CCOC(=O)[C@@H](C)CCO[P@@]1(=O)OC[C@H]2O[C@@H](n3ccc(N)nc3=O)C(F)(F)[C@@H]2O1` (single isomer, unassigned) [Compound 122 Diastereoisomer 1], the IC50 (HuH-1 cells; Homo sapiens, HuH-1, 72 h) is reported as < 0.3 µM.

For `CCOC(=O)[C@@H](C)CCO[P@]1(=O)OC[C@H]2O[C@@H](n3ccc(N)nc3=O)C(F)(F)[C@@H]2O1` (single isomer, unassigned) [Compound 122 Diastereoisomer 2], the IC50 (HuH-1 cells; Homo sapiens, HuH-1, 72 h) was < 0.3 µM.

In the case of `CC(C)OP1(=O)OC[C@H]2O[C@@H](n3ccc(N)nc3=O)C(F)(F)[C@@H]2O1` (single isomer, unassigned) [Compound 102 (diastereomer 1)], the IC50 (A498) is reported as 10 to 100 µM, the IC50 (HCT-116) is reported as 10 to 100 µM and the IC50 (HepG2; Homo sapiens, HepG2, 72 h) is reported as 1 to 10 µM. For the same compound, the IC50 (MiaPACA-2; Homo sapiens, MIA PaCa-2, 72 h) was 1 to 10 µM, the IC50 (BxPC-3) was 10 to 100 µM and the IC50 (CFPAC-1; Homo sapiens, CFPAC-1, 72 h) was 1 to 10 µM. For the same compound, the IC50 (MDA-MB-231; 72 hr exposure) was 10 to 100 µM, the IC50 (NCI-H69) was 10 to 100 µM and the IC50 (HuH-1 cells; Homo sapiens, HuH-1, 72 h) was ≥ 0.3 µM.

`CC(C)OC(=O)[C@@H](C)CCO[P@]1(=O)OC[C@H]2O[C@@H](n3ccc(N)nc3=O)C(F)(F)[C@@H]2O1` (single isomer, unassigned) [Compound 121 Diastereoisomer 1] was tested, and the IC50 (HuH-1 cells; Homo sapiens, HuH-1, 72 h) was < 0.3 µM.
